Experimental data taken from patent US20240351997A1, “NOVEL PARP7 INHIBITOR AND USE THEREOF” (SHANGHAI QILU PHARMACEUTICAL RESEARCH AND DEVELOPMENT …, priority 2021, published 2024).

Molecular target: PARP7 (Homo sapiens (Human), UniProt Q7Z3E1)
Experiment: In vitro enzymology experiment of PARP7 (enzymatic inhibition)
Type: biochemical
In short: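 Histone-coated plate ADP-ribosylation format: compound preincubated 10 min at room temperature with preincubated (25 °C, 10 min) enzyme mixture; incorporated biotin detected by streptavidin-HRP and QuantaRed fluorescence (Ex550/Em620).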

Sequence of PARP7 (Q7Z3E1 whole entry): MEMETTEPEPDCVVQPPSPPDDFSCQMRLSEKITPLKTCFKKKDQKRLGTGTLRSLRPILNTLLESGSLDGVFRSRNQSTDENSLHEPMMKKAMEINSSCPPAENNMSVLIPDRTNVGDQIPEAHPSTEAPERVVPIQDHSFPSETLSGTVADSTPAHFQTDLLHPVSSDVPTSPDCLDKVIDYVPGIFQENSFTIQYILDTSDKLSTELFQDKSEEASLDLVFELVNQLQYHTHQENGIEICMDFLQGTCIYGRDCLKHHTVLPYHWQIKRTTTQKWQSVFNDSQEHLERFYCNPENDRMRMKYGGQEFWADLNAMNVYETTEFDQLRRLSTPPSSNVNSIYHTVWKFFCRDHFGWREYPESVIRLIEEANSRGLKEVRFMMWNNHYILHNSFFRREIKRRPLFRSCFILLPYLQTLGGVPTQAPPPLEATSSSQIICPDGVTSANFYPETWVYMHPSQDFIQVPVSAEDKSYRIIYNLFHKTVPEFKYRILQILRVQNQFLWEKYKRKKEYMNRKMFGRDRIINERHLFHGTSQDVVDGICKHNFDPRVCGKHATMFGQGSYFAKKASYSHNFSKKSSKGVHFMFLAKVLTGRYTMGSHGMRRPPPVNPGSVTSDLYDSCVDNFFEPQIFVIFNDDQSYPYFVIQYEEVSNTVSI

Structure (SMILES) | IC50 [nM]
C[C@@H]1CN(c2ncc(C(F)(F)F)cn2)CCN1C(=O)Oc1cccc(-c2c[nH]c(=O)c(C(F)(F)F)c2)c1 [Example 140, 3-(6-Oxo-5-(trifluoromethyl)-1,6-dihydropyridin-3-yl)phenyl (R)-2-methyl-4-(5-(trifluoromethyl)pyrimidin-2-yl)piperazine-1-carboxylate] | 2.86
N#Cc1ccc(N2CCN(C(=O)OCCc3c[nH]c(=O)c(C(F)(F)F)c3)CC2)nc1 [Example 144, 2-(6-Oxo-5-(trifluoromethyl)-1,6-dihydropyridin-3-yl)ethyl 4-(5-cyanopyridin-2-yl)piperazine-1-carboxylate] | 1.5
C[C@H]1CN(c2ncc(C(F)(F)F)cn2)C[C@H](C)N1C(=O)OCCc1c[nH]c(=O)c(C(F)(F)F)c1 [Example 145, 2-(6-Oxo-5-(trifluoromethyl)-1,6-dihydropyridin-3-yl)ethyl (2S,6S)-2,6-dimethyl-4-(5-(trifluoromethyl)pyrimidin-2-yl)piperazine-1-carboxylate] | 2.3
C[C@@H]1CN(c2ncc(C(F)(F)F)cn2)C[C@@H](C)N1C(=O)OCCc1c[nH]c(=O)c(C(F)(F)F)c1 [Example 148, 2-(6-Oxo-5-(trifluoromethyl)-1,6-dihydropyridin-3-yl)ethyl (2R,6R)-2,6-dimethyl-4-(5-(trifluoromethyl)pyrimidin-2-yl)piperazine-1-carboxylate] | 0.77
C[C@@H]1CN(C(=O)OCCc2c[nH]c(=O)c(C(F)(F)F)c2)C[C@@H](C)N1c1ncc(C(F)(F)F)cn1 [Example 149, 2-(6-Oxo-5-(trifluoromethyl)-1,6-dihydropyridin-3-yl)ethyl (3R,5R)-3,5-dimethyl-4-(5-(trifluoromethyl)pyrimidin-2-yl)piperazine-1-carboxylate] | 0.64
C[C@@H]1CN(c2ncc(C(F)(F)F)cn2)C[C@H](C)N1C(=O)OCCc1c[nH]c(=O)c(C(F)(F)F)c1 [Example 150, 2-(6-Oxo-5-(trifluoromethyl)-1,6-dihydropyridin-3-yl)ethyl (2S,6R)-2,6-dimethyl-4-(5-(trifluoromethyl)pyrimidin-2-yl)piperazine-1-carboxylate] | 0.71
C[C@@H]1CN(c2ncc(C3CC3)cn2)C[C@H](C)N1C(=O)OCCc1c[nH]c(=O)c(C(F)(F)F)c1 [Example 151, 2-(6-Oxo-5-(trifluoromethyl)-1,6-dihydropyridin-3-yl)ethyl (2R,6S)-4-(5-cyclopropylpyrimidin-2-yl)-2,6-dimethylpiperazine-1-carboxylate] | 1.1
O=C(OCCc1c[nH]c(=O)c(C(F)(F)F)c1)N1CCN(c2ncc(C3CC3)cn2)CC1 [Example 152, 2-(6-Oxo-5-(trifluoromethyl)-1,6-dihydropyridin-3-yl)ethyl 4-(5-cyclopropylpyrimidin-2-yl)piperazine-1-carboxylate] | 0.76
C[C@@H]1CN(C(=O)OCCc2c[nH]c(=O)c(C(F)(F)F)c2)C[C@H](C)N1c1ncc(C(F)(F)F)cn1 [Example 153, 2-(6-Oxo-5-(trifluoromethyl)-1,6-dihydropyridin-3-yl)ethyl (3R,5S)-3,5-dimethyl-4-(5-(trifluoromethyl)pyrimidin-2-yl)piperazine-1-carboxylate] | 0.65
C[C@@H]1CN(c2ncc(C(F)(F)F)cn2)[C@@H](C)CN1C(=O)O[C@@H](C)Cc1c[nH]c(=O)c(C(F)(F)F)c1 [Example 155, (S)-1-(6-Oxo-5-(trifluoromethyl)-1,6-dihydropyridin-3-yl)propan-2-yl (2R,5S)-2,5-dimethyl-4-(5-(trifluoromethyl)pyrimidin-2-yl)piperazine-1-carboxylate] | 0.59
C[C@@H]1CN(c2ncc(C(F)(F)F)cn2)C[C@H](C)N1C(=O)O[C@@H](C)Cc1c[nH]c(=O)c(C(F)(F)F)c1 [Example 156, (S)-1-(6-Oxo-5-(trifluoromethyl)-1,6-dihydropyridin-3-yl)propan-2-yl (2R,6S)-2,6-dimethyl-4-(5-(trifluoromethyl)pyrimidin-2-yl)piperazine-1-carboxylate] | 0.98
C[C@@H]1CN(C(=O)O[C@@H](C)Cc2c[nH]c(=O)c(C(F)(F)F)c2)C[C@@H](C)N1c1ncc(C(F)(F)F)cn1 [Example 157, (S)-1-(6-Oxo-5-(trifluoromethyl)-1,6-dihydropyridin-3-yl)propan-2-yl (3R,5R)-3,5-dimethyl-4-(5-(trifluoromethyl)pyrimidin-2-yl)piperazine-1-carboxylate] | 0.9
C[C@@H]1CN(c2ncc(C(F)(F)F)cn2)C[C@@H](C)N1C(=O)O[C@@H](C)Cc1c[nH]c(=O)c(C(F)(F)F)c1 [Example 158, (S)-1-(6-Oxo-5-(trifluoromethyl)-1,6-dihydropyridin-3-yl)propan-2-yl (2R,6R)-2,6-dimethyl-4-(5-(trifluoromethyl)pyrimidin-2-yl)piperazine-1-carboxylate] | 5
C[C@@H](Cc1c[nH]c(=O)c(C(F)(F)F)c1)OC(=O)N1[C@@H](C)CN(c2ncc(C(F)(F)F)cn2)C[C@@H]1C [Example 159, (S)-1-(6-Oxo-5-(trifluoromethyl)-1,6-dihydropyridin-3-yl)propan-2-yl (2S,6S)-2,6-dimethyl-4-(5-(trifluoromethyl)pyrimidin-2-yl)piperazine-1-carboxylate] | 0.9
C[C@@H]1CN(C(=O)O[C@@H](C)Cc2c[nH]c(=O)c(C(F)(F)F)c2)[C@@H](C)CN1c1ncc(C(F)(F)F)cn1 [Example 160, (S)-1-(6-Oxo-5-(trifluoromethyl)-1,6-dihydropyridin-3-yl)propan-2-yl (2S,5R)-2,5-dimethyl-4-(5-(trifluoromethyl)pyrimidin-2-yl)piperazine-1-carboxylate] | 1.3
C[C@@H]1CN(c2ncc(C(F)(F)F)cn2)[C@H](C)CN1C(=O)O[C@@H](C)Cc1c[nH]c(=O)c(C(F)(F)F)c1 [Example 161, (S)-1-(6-Oxo-5-(trifluoromethyl)-1,6-dihydropyridin-3-yl)propan-2-yl (2R,5R)-2,5-dimethyl-4-(5-(trifluoromethyl)pyrimidin-2-yl)piperazine-1-carboxylate] | 0.91
C[C@@H]1CN(C(=O)O[C@@H](C)Cc2c[nH]c(=O)c(C(F)(F)F)c2)C[C@H](C)N1c1ncc(C(F)(F)F)cn1 [Example 162, (S)-1-(6-Oxo-5-(trifluoromethyl)-1,6-dihydropyridin-3-yl)propan-2-yl (3S,5R)-3,5-dimethyl-4-(5-(trifluoromethyl)pyrimidin-2-yl)piperazine-1-carboxylate] | 1.2
Cc1cnc(N2C[C@@H](C)N(C(=O)OCCc3c[nH]c(=O)c(C(F)(F)F)c3)[C@@H](C)C2)nc1 [Example 163, 2-(6-Oxo-5-(trifluoromethyl)-1,6-dihydropyridin-3-yl)ethyl (2R,6S)-2,6-dimethyl-4-(5-methylpyrimidin-2-yl)piperazine-1-carboxylate] | 0.75
Cc1cnc(N2C[C@H](C)N(C(=O)OCCc3c[nH]c(=O)c(C(F)(F)F)c3)[C@@H](C)C2)nc1 [Example 164, 2-(6-Oxo-5-(trifluoromethyl)-1,6-dihydropyridin-3-yl)ethyl (2S,6S)-2,6-dimethyl-4-(5-methylpyrimidin-2-yl)piperazine-1-carboxylate] | 5.6
Cc1cnc(N2[C@H](C)CN(C(=O)OCCc3c[nH]c(=O)c(C(F)(F)F)c3)C[C@@H]2C)nc1 [Example 165, 2-(6-Oxo-5-(trifluoromethyl)-1,6-dihydropyridin-3-yl)ethyl (3S,5R)-3,5-dimethyl-4-(5-methylpyrimidin-2-yl)piperazine-1-carboxylate] | 1
Cc1cnc(N2C[C@H](C)N(C(=O)OCCc3c[nH]c(=O)c(C(F)(F)F)c3)C[C@H]2C)nc1 [Example 166, 2-(6-Oxo-5-(trifluoromethyl)-1,6-dihydropyridin-3-yl)ethyl (2S,5R)-2,5-dimethyl-4-(5-methylpyrimidin-2-yl)piperazine-1-carboxylate] | 0.65
Cc1cnc(N2C[C@@H](C)N(C(=O)OCCc3c[nH]c(=O)c(C(F)(F)F)c3)C[C@@H]2C)nc1 [Example 168, 2-(6-Oxo-5-(trifluoromethyl)-1,6-dihydropyridin-3-yl)ethyl (2R,5S)-2,5-dimethyl-4-(5-methylpyrimidin-2-yl)piperazine-1-carboxylate] | 0.9
Cc1cnc(N2C[C@@H](C)N(C(=O)O[C@@H](C)Cc3c[nH]c(=O)c(C(F)(F)F)c3)C[C@H]2C)nc1 [Example 169, (S)-1-(6-Oxo-5-(trifluoromethyl)-1,6-dihydropyridin-3-yl)propan-2-yl (2R,5R)-2,5-dimethyl-4-(5-methylpyrimidin-2-yl)piperazine-1-carboxylate] | 0.7
Cc1cnc(N2C[C@H](C)N(C(=O)O[C@@H](C)Cc3c[nH]c(=O)c(C(F)(F)F)c3)C[C@H]2C)nc1 [Example 170, (S)-1-(6-Oxo-5-(trifluoromethyl)-1,6-dihydropyridin-3-yl)propan-2-yl (2S,5R)-2,5-dimethyl-4-(5-methylpyrimidin-2-yl)piperazine-1-carboxylate] | 0.87
Cc1cnc(N2C[C@H](C)N(C(=O)O[C@@H](C)Cc3c[nH]c(=O)c(C(F)(F)F)c3)[C@@H](C)C2)nc1 [Example 171, (S)-1-(6-Oxo-5-(trifluoromethyl)-1,6-dihydropyridin-3-yl)propan-2-yl (2S,6S)-2,6-dimethyl-4-(5-methylpyrimidin-2-yl)piperazine-1-carboxylate] | 1.4
Cc1cnc(N2C[C@@H](C)N(C(=O)O[C@@H](C)Cc3c[nH]c(=O)c(C(F)(F)F)c3)C[C@@H]2C)nc1 [Example 172, (S)-1-(6-Oxo-5-(trifluoromethyl)-1,6-dihydropyridin-3-yl)propan-2-yl (2R,5S)-2,5-dimethyl-4-(5-methylpyrimidin-2-yl)piperazine-1-carboxylate] | 0.84
C[C@@H]1CN(c2ncc(C3CC3)cn2)[C@@H](C)CN1C(=O)O[C@@H](C)Cc1c[nH]c(=O)c(C(F)(F)F)c1 [Example 173, (S)-1-(6-Oxo-5-(trifluoromethyl)-1,6-dihydropyridin-3-yl)propan-2-yl (2R,5S)-4-(5-cyclopropylpyrimidin-2-yl)-2,5-dimethylpiperazine-1-carboxylate] | 0.74
